From patent US7695918B2 (priority 2002, dated 2010)
Read-outs that look alike come from different tables or passages of the source.

Assays:
PrP^sc [1] = tested on: PrP^sc
PrP^sc [2] = type: binding, bovine
PrP^sc [3] = settings: precipitates, ESB bovine brain homogenate
PrP^sc [4] = molecular target: PrP^sc (Ovis aries, UniProt P23907); type: binding; settings: 2000 μg streptomycin; PrP^sc from 920 μg sheep brain afflicted with trembling; from increase of apparent molecular weight
protein prion [5] = molecular target: protein prion (Homo sapiens, UniProt P04156); type: binding; settings: LCR
[6] = molecular target: recPrP (recombinant protein prion) (Homo sapiens, UniProt P04156); settings: recPrP 42 μM diluted with an equivalent volume of streptomycin 1 g/ml; dried on mica
protein prion [7] = type: binding, human; settings: 50 μg/ml final concentration streptomycin; LCR(+) at any proteinase K concentration, LCR(−) only without digestion

Sequence of PrP^sc (Ovis aries, UniProt P23907) (P23907 25-233 limits assumed): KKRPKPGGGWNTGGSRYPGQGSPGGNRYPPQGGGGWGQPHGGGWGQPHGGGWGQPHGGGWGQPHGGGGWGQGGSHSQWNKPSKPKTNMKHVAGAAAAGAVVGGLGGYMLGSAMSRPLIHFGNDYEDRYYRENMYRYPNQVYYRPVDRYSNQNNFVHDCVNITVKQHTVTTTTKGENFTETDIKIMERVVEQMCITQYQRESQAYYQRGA

[H]/N=C(/N)N[C@H]1[C@H](O)[C@@H](O)[C@H](O[C@@H]2O[C@@H](C)[C@](O)(C=O)[C@H]2O[C@@H]2O[C@@H](CO)[C@H](O)[C@@H](O)[C@@H]2NC)[C@@H](N/C(N)=N\[H])[C@@H]1O [streptomycin]
detection of PrP^sc compared with the reference technique (PrP^sc [1]): permits better detection of cases that are slightly positive
precipitation of PrP^sc (PrP^sc [2]; 20 μl streptomycin at 1 g/ml, 100 μl bovine brain suspension after proteinase K, second hour at 37° C.): totally precipitated the PrP^sc
location of PrP^sc bands (supernatant or bottom) (PrP^sc [2]; brain sample diluted 1/25, proteinase K and streptomycin added simultaneously, one hour incubation): in the bottom in the presence of any concentration of streptomycin
dilution down to which PrP^sc is detectable (PrP^sc [3]; 5 μl streptomycin, without streptomycin the limit is 1/16): 1/128
dilution down to which PrP^sc is detectable (PrP^sc [3]; 10 μl streptomycin, most diluted sample tested): 1/256
number of streptomycin molecules attached per band of PrP^sc (PrP^sc [4]): 10 to 12 molecules of streptomycin per band of PrP^sc
apparent size of the protein prion band after streptomycin treatment (protein prion [5]; 0.1 g/ml streptomycin, no proteinase K digestion): approximately 50 kDa
binding of streptomycin to the protein prion (protein prion [5]; absence of digestion by proteinase K, streptomycin 0.1 and 0.2 g/ml): bonds well to the protein prion
surface organization of the film of the recPrP/streptomycin mixture [6]: amorphous surface
apparent molecular mass of the band observed after streptomycin treatment (protein prion [7]): approximately 35 kDa
